In ChEMBL document CHEMBL4330132, “5-Keto-3-cyano-2,4-diaminothiophenes as selective maternal embryonic leucine zipper kinase inhibitors” (Bioorg Med Chem Lett, 2019):

Tests used:
[1] = biological target: Phosphatidylinositol 4-kinase beta (Homo sapiens) (UniProt Q9UBF8); test: Binding affinity to wild-type human full length PIK4CB (M1 to M828 residues) expressed in mammalian expression system assessed as residual binding level at 1 uM by Kinomescan method relative to control
[2] = biological target: Protein-tyrosine kinase 2-beta (Homo sapiens) (UniProt Q14289); test: Binding affinity to wild-type human full length PYK2 (M1 to E967 residues) expressed in bacterial expression system assessed as residual binding level at 1 uM by Kinomescan method relative to control
[3] = biological target: Mitogen-activated protein kinase 14 (Homo sapiens) (UniProt Q16539); test: Binding affinity to wild-type human full length p38-alpha (M1 to S360 residues) expressed in bacterial expression system assessed as residual binding level at 1 uM by Kinomescan method relative to control
[4] = biological target: Tyrosine-protein kinase HCK (Homo sapiens) (UniProt P08631); test: Binding affinity to wild-type human full length HCK (M22 to P526 residues) expressed in bacterial expression system assessed as residual binding level at 1 uM by Kinomescan method relative to control
[5] = biological target: Cyclin-dependent kinase 7 (Homo sapiens) (UniProt P50613); test: Binding affinity to wild-type human full length CDK7 (M1 to L344 residues) expressed in mammalian expression system assessed as residual binding level at 1 uM by Kinomescan method relative to control
[6] = test system: Receptor-type tyrosine-protein kinase FLT3 (Homo sapiens), P36888 [R834Q]; test: Binding affinity to human partial length FLT3 R834Q mutant (V592 to Y969 residues) expressed in mammalian expression system assessed as residual binding level at 1 uM by Kinomescan method relative to control
[7] = biological target: NT-3 growth factor receptor (Homo sapiens) (UniProt Q16288); test: Binding affinity to wild-type human partial length TRKC (Q531 to G825 residues) expressed in mammalian expression system assessed as residual binding level at 1 uM by Kinomescan method relative to control
[8] = biological target: SRSF protein kinase 2 (Homo sapiens) (UniProt P78362); test: Binding affinity to wild-type human full length SRPK2 (M1 to S686 residues) expressed in bacterial expression system assessed as residual binding level at 1 uM by Kinomescan method relative to control
[9] = biological target: Serine/threonine-protein kinase 10 (Homo sapiens) (UniProt O94804); test: Binding affinity to wild-type human partial length LOK (E16 to V314 residues) expressed in bacterial expression system assessed as residual binding level at 1 uM by Kinomescan method relative to control
[10] = biological target: Serine/threonine-protein kinase LATS1 (Homo sapiens) (UniProt O95835); test: Binding affinity to wild-type human partial length LATS1 (Q678 to V1130 residues) expressed in bacterial expression system assessed as residual binding level at 1 uM by Kinomescan method relative to control
[11] = biological target: Inhibitor of nuclear factor kappa-B kinase subunit epsilon (Homo sapiens) (UniProt Q14164); test: Binding affinity to wild-type human full length IKK-epsilon (M1 to V716 residues) expressed in mammalian expression system assessed as residual binding level at 1 uM by Kinomescan method relative to control
[12] = biological target: Serine/threonine-protein kinase PLK1 (Homo sapiens) (UniProt P53350); test: Binding affinity to wild-type human partial length PLK1 (A33 to F325 residues) expressed in mammalian expression system assessed as residual binding level at 1 uM by Kinomescan method relative to control
[13] = biological target: Rho-associated protein kinase 1 (Homo sapiens) (UniProt Q13464); test: Binding affinity to wild-type human partial length ROCK1 (M1 to R415 residues) expressed in mammalian expression system assessed as residual binding level at 1 uM by Kinomescan method relative to control
[14] = biological target: Activin receptor type-1-like (Homo sapiens) (UniProt P37023); test: Binding affinity to wild-type human ACVRL1 (L164 to Q503 residues) expressed in bacterial expression system assessed as residual binding level at 1 uM by Kinomescan method relative to control
[15] = biological target: Bone morphogenetic protein receptor type-1B (Homo sapiens) (UniProt O00238); test: Binding affinity to wild-type human partial length BMPR1B (D178 to L502 residues) expressed in mammalian expression system assessed as residual binding level at 1 uM by Kinomescan method relative to control
[16] = biological target: RAF proto-oncogene serine/threonine-protein kinase (Homo sapiens) (UniProt P04049); test: Binding affinity to wild-type human partial length RAF1 (I330 to T640 residues) expressed in bacterial expression system assessed as residual binding level at 1 uM by Kinomescan method relative to control
[17] = test system: Serine/threonine-protein kinase B-raf (Homo sapiens), P15056 [V600E]; test: Binding affinity to human partial length BRAF V600E mutant (S429 to E741 residues) expressed in mammalian expression system assessed as residual binding level at 1 uM by Kinomescan method relative to control
[18] = biological target: Activin receptor type-1B (Homo sapiens) (UniProt P36896); test: Binding affinity to wild-type human ACVR1B (S187 to I505 residues) expressed in bacterial expression system assessed as residual binding level at 1 uM by Kinomescan method relative to control
[19] = biological target: Ribosomal protein S6 kinase alpha-2 (Homo sapiens) (UniProt Q15349); test: Binding affinity to wild-type human partial length N-terminal RSK3 kinase domain 1 (M1 to Q385 residues) expressed in bacterial expression system assessed as residual binding level at 1 uM by Kinomescan method relative to control
[20] = biological target: Casein kinase II subunit alpha' (Homo sapiens) (UniProt P19784); test: Binding affinity to wild-type human full length CSNK2A2 (M1 to R350 residues) expressed in mammalian expression system assessed as residual binding level at 1 uM by Kinomescan method relative to control
[21] = biological target: Phosphatidylinositol 4,5-bisphosphate 3-kinase catalytic subunit delta isoform (Homo sapiens) (UniProt O00329); test: Binding affinity to wild-type human partial length PIK3CD (R108 to Q1044 residues) expressed in mammalian expression system assessed as residual binding level at 1 uM by Kinomescan method relative to control
[22] = biological target: BMP-2-inducible protein kinase (Homo sapiens) (UniProt Q9NSY1); test: Binding affinity to wild-type human partial length BIKE (S34 to N329 residues) expressed in bacterial expression system assessed as residual binding level at 1 uM by Kinomescan method relative to control
[23] = biological target: Serine/threonine-protein kinase NLK (Homo sapiens) (UniProt Q9UBE8); test: Binding affinity to wild-type human full length NLK (M13 to E527 residues) expressed in bacterial expression system assessed as residual binding level at 1 uM by Kinomescan method relative to control
[24] = biological target: Myosin light chain kinase, smooth muscle (Homo sapiens) (UniProt Q15746); test: Binding affinity to wild-type human full length MYLK (M854 to E1845 residues) expressed in mammalian expression system assessed as residual binding level at 1 uM by Kinomescan method relative to control
[25] = biological target: Dual serine/threonine and tyrosine protein kinase (Homo sapiens) (UniProt Q6XUX3); test: Binding affinity to wild-type human full length RIPK5 (M1 to T929 residues) expressed in mammalian expression system assessed as residual binding level at 1 uM by Kinomescan method relative to control

## CC(C)Nc1sc(C(=O)c2ccc(Cl)s2)c(N)c1C#N
[1]
  Activity: 100%
[2]
  Activity: 100%
[3]
  Activity: 95%
[4]
  Activity: 90%
[5]
  Activity: 100%
[6]
  Activity: 99%
[7]
  Activity: 87%
[8]
  Activity: 93%
[9]
  Activity: 82%
[10]
  Activity: 98%
[11]
  Activity: 100%
[12]
  Activity: 100%
[13]
  Activity: 100%
[14]
  Activity: 100%
[15]
  Activity: 94%
[16]
  Activity: 71%
[17]
  Activity: 97%
[18]
  Activity: 82%
[19]
  Activity: 54%
[20]
  Activity: 100%
[21]
  Activity: 78%
[22]
  Activity: 56%
[23]
  Activity: 79%
[24]
  Activity: 71%
[25]
  Activity: 85%
